Here are results for two compounds from patent publication US20230181535A1, “UBIQUITIN-LIGASE INHIBITORS FOR THE TREATMENT OF CANCER” (FUNDACIÓN PROFESOR NOVOA SANTOS, priority 2020, published 2023).

The subject of series [1] is HT29 cell line. Description: Invasion assay, HT29 (dose/response). In kind it is cell-based, human. The note with it: for cell invasion: treated 48 h, 1 μM, 10 μM, 50 μM, vs DMSO. The protocol: [The procedure below names another cell line; the source lists this cell line under the same test.] For invasion assays, cells were treated with Hakin-1 or DMSO as vehicle for 48 h using 1% FBS during the last 24 hours. 3×10^5 MDCK, MDCK-Hakai or LoVo cells were seeded in a cell invasion chamber (Cell invasion assay kit, Chemicon International) containing medium with 2% FBS. After 72 hours for MDCK and MDCK-Hakai Invasive and 16 h for LoVo cells, invasive cells invaded that reach the lower chamber containing 30% FBS were fixed and stained with crystal violet (Sigma Aldrich, St Louis, Mo.) following the manufacturer's specifications. For migration assays, HT29 cells were cultured with Hakin-1 or DMSO as vehicle for 48 h, using medium without serum the last 24 h. In the cell migration chamber were seeded 3×10^5 HT29 cells (Cell migration kit, Millipore, Bedford, Mass.) containing medium without serum. After 16 h, migrated cells in the lower chamber containing serum with 30% FBS were stained with crystal violet and counted following the manufacturer's specifications. For both invasion and migration assays cells were counted in five fields photographed with an Olympus microscope using a 20× objective, experiments were performed in triplicates for each condition and the assays were repeated at least three times. Results are expressed as mean±SD.

In series [2] the test system is LoVo cells. Description: Western blotting of EMT markers, LoVo. The series is classed as cell-based. To be noted: 48 h. The method, then:
For western blot analysis, cells were treated with the indicated inhibitors for 48 h and the whole cell extracts were obtained as described previously. Twenty micrograms of lysates were resolved on a 10% polyacrilamide SDS-PAGE followed by western blot analysis performed as previously described. For immunofluorescence assays cells were grown for 24 h on glass coverslips and treated with the indicated inhibitors for 48 h. Cells were fixed with 4% PFA for 15 min, permeabilized with 0.5% […] and incubated with E-cadherin antibody for 2 h. Coverslips were incubated with fluorescein-tagged secondary antibody (Dakopatts, Sweden) for […]. Finally coverslips were mounted with ProLong Gold antifade reagent (LifeTech, UK) and images were taken in epifluorescence microscope (Olympus) using 40× objective. […] One set of SIM Synthetic Focus images were taken in the DAPI channel for Hoechst 33342 staining, and another set of images were taken in the FITC channel for anti-E-cadherin-AlexaFluor488 labeling and analysed by Structured Illumination Microscopy (SIM™) platform to image the cells and Vala's CyteSeer® Cell-Cell Junction Algorithm to quantify the degree of expression and intracellular location of E-cadherin Vala's CyteSeer® Software can also measure relative DNA content by analyzing Total Integrated Intensity (TII) of the Nuclear Image (Ni) on the Nuclear Mask (Nm). […]
A general note: Immunoblotting shows a protein as a band on a membrane.

The subject of series [3] is non-cancerous HEK293T cells. As to the kind of experiment: MTT cell viability assay, HEK293T. To be noted: concentrations tested in the previous assays. The series is classed as cell-based, human. The protocol:
For cytotoxicity assays, 1×10^4 cells were seeded per well into a 96-well plate. After 24 h cells were treated with the indicated inhibitors for 72 h and a MTT colorimetric cell viability assay was performed following manufacturer's instructions (Sigma Aldrich, St Louis, Mo.). Absorbance was measured at 570 and 630 nm using a Multiskan Plus Reader (Nanoquant Infinite M200 Tecan Trading AG, Switzerland). Dose-response curves were designed with Graph Pad Prism Software and the half-maximal inhibitory concentration (IC50) values were calculated. Represented data are the mean±SEM of at least three independent experiments with six replicates per condition.

For the compound `O=C(O)c1ccc(-n2nnnc2SCC(=O)c2ccc([N+](=O)[O-])cc2)cc1` [Hakin-1, 4-(5-[2-(4-nitrophenyl)-2-oxoethyl]thiol-1H-tetrazol-1-yl)benzoic acid], the cell invasion entry in series [1] was “reduce cell invasion”. Besides, the “EMT markers (western blotting)” value in series [2] was “confirmed these results”.

`O=C(O)c1ccc(-n2nnnc2SCC(O)c2ccc([N+](=O)[O-])cc2)cc1` (centres unmarked) [MKH1]: the IC50 in series [1] (Homo sapiens, HT-29, treated 48 h, read-out: concentration at which 50% inhibition of invasion was achieved) was ~1 µM. Also, the cell invasion entry in series [1] is on record as “reduce cell invasion”. Also, the “cytotoxic effect (cell viability, MTT)” value in series [3] is reported as “no cytotoxic effect”.
